Measured values published in patent US11479802B2, “Assays for screening activity of modulators of members of the hydroxy steroid (17-beta) dehydrogenase (HSD17B) family” (Regeneron Pharmaceuticals, Inc., priority 2017, dated 2022).

Target: T1, human HSD17B13 (Homo sapiens, UniProt Q7Z5P4)
T1 sequence (Q7Z5P4 20-300): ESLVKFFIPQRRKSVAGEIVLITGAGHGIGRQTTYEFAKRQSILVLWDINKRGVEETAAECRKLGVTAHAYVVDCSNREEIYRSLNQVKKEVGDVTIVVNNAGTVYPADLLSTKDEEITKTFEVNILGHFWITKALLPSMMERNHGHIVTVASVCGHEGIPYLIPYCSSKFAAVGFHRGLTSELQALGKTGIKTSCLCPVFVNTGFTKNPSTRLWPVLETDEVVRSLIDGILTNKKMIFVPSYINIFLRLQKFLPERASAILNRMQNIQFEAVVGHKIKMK
Experiment: Substrate screening of steroid and bioactive lipid libraries against purified recombinant HSD17B13 (NADH-linked luciferase assay)
Format: biochemical
Settings: for HSD17B13 Enzymatic Activity Relative Light Units: 500 μM NAD+, 100 ng enzyme, 3 hours at 23° C.; for HSD17B13 Enzymatic Activity Percent Estradiol Control: normalized to 50 μM estradiol after subtraction of 5% DMSO
Experimental: To understand the functional consequences of premature truncation of the HSD17B13 protein due to rs72613567:TA (the associated variant, rs72613567, is an insertion of an adenine adjacent to the donor splice site of exon six (TA allele)), the enzymatic activity of isoforms A and D was evaluated in vitro using recombinant protein and nicotinamide […] dinucleotide as cofactor. Reactions were performed in a final volume of 40 μl of assay buffer (0.2 M Tris-HCl, pH 7.5) which contained 500 μM NAD^+, 5 μM bioactive lipid or 50 μM steroid (all in a final concentration of 5% DMSO), and 100 ng of recombinant human HSD17B13. Reactions were incubated for 3 hours, at 23° C., after which an equal volume detection reagent was added. Following a 1 hour incubation at 23° C., the relative light units (RLUs) were measured on an Envision Plate Reader (Perkin Elmer). Raw RLU values were normalized as percent of control (50 μM estradiol) following subtraction of negative control (5% DMSO) using the following formula: Percent of control (POC)=100×(Sample (RLU)−Negative CTRLaverage)/(Positive CTRLaverage−Negative CTRLaverage).

[1] = Bioactive Lipid Library, 5 μM bioactive lipid (Estradiol Control 50 μM)
[2] = Bioactive Lipid Library, 5 μM bioactive lipid

## CC(C)=CCC[C@]1(C)[C@@H](CC=C(C)C)C[C@@]2(CC=C(C)C)C(=O)[C@]1(C(=O)C(C)C)C(=O)C(CC=C(C)C)=C2O [Hyperforin]
[1]
  HSD17B13 Enzymatic Activity Relative Light Units: 23920 RLU
[2]
  HSD17B13 Enzymatic Activity Percent Estradiol Control: −22.74%

## CC[C@H]1O[C@H]1C/C=C\C/C=C\C/C=C\C/C=C\C/C=C\CCC(=O)O (racemic) [(±)19(20)-EpDPA]
[1]
  HSD17B13 Enzymatic Activity Relative Light Units: 300600 RLU
[2]
  HSD17B13 Enzymatic Activity Percent Estradiol Control: 1.38%

## CC/C=C/C[C@H](O)/C=C/[C@@H]1[C@@H](C/C=C\CCCC(=O)O)[C@@H](O)C[C@H]1O (relative stereo) [17-trans Prostaglandin F3α]
[1]
  HSD17B13 Enzymatic Activity Relative Light Units: 371720 RLU
[2]
  HSD17B13 Enzymatic Activity Percent Estradiol Control: 7.01%

## CC/C=C\CC(O)/C=C/C=C\C/C=C\C/C=C\C/C=C\CCC(=O)O (racemic) [(±)17-HDHA]
[1]
  HSD17B13 Enzymatic Activity Relative Light Units: 492440 RLU
[2]
  HSD17B13 Enzymatic Activity Percent Estradiol Control: 15.29%

## CCCCC/C=C\C/C=C\C/C=C\CC1OC1CCCC(=O)O (racemic) [(±)5(6)-EET]
[1]
  HSD17B13 Enzymatic Activity Relative Light Units: 360960 RLU
[2]
  HSD17B13 Enzymatic Activity Percent Estradiol Control: 5.51%

## C[C@]12C[C@H](O)[C@H]3[C@@H](CCC4=CC(=O)CC[C@@]43C)[C@@H]1CC[C@@H]2C(=O)CO [Corticosterone]
Steroid Library, 50 μM steroid
  HSD17B13 Enzymatic Activity Relative Light Units: 215320 RLU
  HSD17B13 Enzymatic Activity Percent Estradiol Control: 0.96%

## Epiandrosterone acetate
Steroid Library, 50 μM steroid
  HSD17B13 Enzymatic Activity Relative Light Units: 210960 RLU
  HSD17B13 Enzymatic Activity Percent Estradiol Control: 0.88%

## Ptdlns-(3,4)-P2 (1,2-dipalmitoyl) (sodium salt)
[1]
  HSD17B13 Enzymatic Activity Relative Light Units: 351680 RLU
[2]
  HSD17B13 Enzymatic Activity Percent Estradiol Control: 2.01%

## C[C@]12CCC(=O)C=C1CC[C@@H]1[C@@H]2CC[C@]2(C)C(=O)CC[C@@H]12 [Androstenedione]
Steroid Library, 50 μM steroid
  HSD17B13 Enzymatic Activity Relative Light Units: 172400 RLU
  HSD17B13 Enzymatic Activity Percent Estradiol Control: 0.21%

## CCCCCCCC/C(=C\CCCCCCCC(=O)O)[N+](=O)[O-] [10-Nitrooleate]
[1]
  HSD17B13 Enzymatic Activity Relative Light Units: 28200 RLU
[2]
  HSD17B13 Enzymatic Activity Percent Estradiol Control: −22.42%

## CC/C=C\C[C@H](O)/C=C/C=C\C/C=C\C/C=C\CCCC(=O)O [15(S)-HEPE]
[1]
  HSD17B13 Enzymatic Activity Relative Light Units: 505240 RLU
[2]
  HSD17B13 Enzymatic Activity Percent Estradiol Control: 16.24%

## CC/C=C\CC1OC1C/C=C\C/C=C\C/C=C\CCCC(=O)O (racemic) [(±)14(15)-EpETE]
[1]
  HSD17B13 Enzymatic Activity Relative Light Units: 306600 RLU
[2]
  HSD17B13 Enzymatic Activity Percent Estradiol Control: 1.86%

## CC(C)OC(=O)CCC/C=C/C[C@@H]1[C@@H](/C=C/[C@@H](O)COc2cccc(C(F)(F)F)c2)[C@H](O)C[C@@H]1O (relative stereo) [5-trans Fluprostenol isopropyl ester]
[1]
  HSD17B13 Enzymatic Activity Relative Light Units: 551400 RLU
[2]
  HSD17B13 Enzymatic Activity Percent Estradiol Control: 21.21%

## CCCCC/C=C\C/C=C\CC(O)C(O)C/C=C\CCCC(=O)O (racemic) [(±)8(9)-DiHET]
[1]
  HSD17B13 Enzymatic Activity Relative Light Units: 472120 RLU
[2]
  HSD17B13 Enzymatic Activity Percent Estradiol Control: 11.11%

## CCCCC/C=C\C=C\C(O)CCCCCCCC(=O)O (racemic) [(±)9-HODE]
[1]
  HSD17B13 Enzymatic Activity Relative Light Units: 695320 RLU
[2]
  HSD17B13 Enzymatic Activity Percent Estradiol Control: 30.38%

## CCCCCC(=O)/C=C/[C@H]1C(O)CC(=O)[C@H]1C/C=C\CCCC(=O)O (stereo partly drawn) [8-iso-15-keto Prostaglandin E2]
[1]
  HSD17B13 Enzymatic Activity Relative Light Units: 262160 RLU
[2]
  HSD17B13 Enzymatic Activity Percent Estradiol Control: −1.65%

## CC/C=C\CC(O)/C=C/C=C\C/C=C\C/C=C\CCCC(=O)O (racemic) [(±)15-HEPE]
[1]
  HSD17B13 Enzymatic Activity Relative Light Units: 578600 RLU
[2]
  HSD17B13 Enzymatic Activity Percent Estradiol Control: 21.70%

## CCCCC(C)(C)[C@H](O)/C=C/[C@H]1[C@H](O)CC(=O)[C@@H]1C/C=C\CCCC(=O)Oc1ccc(NC(=O)c2ccc(NC(C)=O)cc2)cc1 [16,16-dimethyl Prostaglandin E2 p-(p-acetamidobenzamido) phenyl ester]
[1]
  HSD17B13 Enzymatic Activity Relative Light Units: 322280 RLU
[2]
  HSD17B13 Enzymatic Activity Percent Estradiol Control: 3.10%

## C[C@@H](O)CCC[C@@H](O)/C=C/[C@H]1[C@H](O)CC(=O)[C@@H]1C/C=C\CCCC(=O)O [15(R),19(R)-hydroxy Prostaglandin E2]
[1]
  HSD17B13 Enzymatic Activity Relative Light Units: 346000 RLU
[2]
  HSD17B13 Enzymatic Activity Percent Estradiol Control: 4.97%

## CCCCC[C@H](O)/C=C/C=C\C/C=C\C/C=C\CCCC(=O)O (racemic) [(±)15-HETE]
[1]
  HSD17B13 Enzymatic Activity Relative Light Units: 47880 RLU
[2]
  HSD17B13 Enzymatic Activity Percent Estradiol Control: 30.81%

## C[C@]12CCC(=O)C[C@@H]1CC[C@@H]1[C@@H]2[C@@H](O)C[C@@]2(C)[C@H]1CC[C@]2(O)C(=O)CO [5alpha-dihydrocortisol]
Steroid Library, 50 μM steroid
  HSD17B13 Enzymatic Activity Relative Light Units: 139720 RLU
  HSD17B13 Enzymatic Activity Percent Estradiol Control: −0.36%

## CC/C=C\C/C=C\CC(O)/C=C/C=C\C/C=C\CCCC(=O)O (racemic) [(±)12-HEPE]
[1]
  HSD17B13 Enzymatic Activity Relative Light Units: 761600 RLU
[2]
  HSD17B13 Enzymatic Activity Percent Estradiol Control: 35.30%

## CCCCC[C@H](O)/C=C/C=C\C/C=C\C/C=C\CCCC(=O)O [15(S)-HETE]
[1]
  HSD17B13 Enzymatic Activity Relative Light Units: 1107240 RLU
[2]
  HSD17B13 Enzymatic Activity Percent Estradiol Control: 24.49%

## CCCCC[C@@H](O)/C=C/C=C\CCCCCCCC(=O)O [13(R)-HODE]
[1]
  HSD17B13 Enzymatic Activity Relative Light Units: 1105960 RLU
[2]
  HSD17B13 Enzymatic Activity Percent Estradiol Control: 60.91%

## CCCCC[C@@H](/C=C/C=C\C/C=C\CCCCC(=O)O)OO [13(S)-HpOTrE(γ)]
[1]
  HSD17B13 Enzymatic Activity Relative Light Units: 268840 RLU
[2]
  HSD17B13 Enzymatic Activity Percent Estradiol Control: −1.34%

## CC/C=C\C/C=C\C/C=C\C/C=C\C=C\C(O)CCCC(=O)O (racemic) [(±)5-HEPE]
[1]
  HSD17B13 Enzymatic Activity Relative Light Units: 344480 RLU
[2]
  HSD17B13 Enzymatic Activity Percent Estradiol Control: 4.85%

## CCC(=O)O[C@H]1CC[C@H]2[C@@H]3CC[C@H]4CC(=O)[C@H](C)C[C@]4(C)[C@H]3CC[C@]12C [Dromostanolone proprionate]
Steroid Library, 50 μM steroid
  HSD17B13 Enzymatic Activity Relative Light Units: 212040 RLU
  HSD17B13 Enzymatic Activity Percent Estradiol Control: 0.90%

## CCCCCC(=O)/C=C/C=C\C/C=C\C/C=C\CCCC(=O)O [15-OxoETE]
[1]
  HSD17B13 Enzymatic Activity Relative Light Units: 616120 RLU
[2]
  HSD17B13 Enzymatic Activity Percent Estradiol Control: −8.98%

## CCC(O)C(O)C/C=C\C/C=C\C/C=C\C/C=C\CCCC(=O)O (racemic) [(±)17(18)-DiHETE]
[1]
  HSD17B13 Enzymatic Activity Relative Light Units: 369120 RLU
[2]
  HSD17B13 Enzymatic Activity Percent Estradiol Control: 3.33%

## CCCCC[C@H](O)/C=C/[C@H]1C(=O)CC(=O)[C@@H]1CCCCCCC(=O)O [Prostaglandin K1]
[1]
  HSD17B13 Enzymatic Activity Relative Light Units: 223160 RLU
[2]
  HSD17B13 Enzymatic Activity Percent Estradiol Control: −4.74%

## O=P([O-])(O)OC1[C@@H](O)[C@H](OP(=O)([O-])O)C(OP(=O)([O-])O)[C@H](OP(=O)([O-])O)[C@H]1O.[Na+].[Na+].[Na+].[Na+] (stereo partly drawn) [D-myo-Inositol-1,2,3,5-tetraphosphate (sodium salt)]
[1]
  HSD17B13 Enzymatic Activity Relative Light Units: 430640 RLU
[2]
  HSD17B13 Enzymatic Activity Percent Estradiol Control: 7.98%

## C[C@]12CC[C@H](O)CC1=CC[C@@H]1[C@@H]2CC[C@]2(C)C(=O)CC[C@@H]12 [Dehydroepiandrosterone]
Steroid Library, 50 μM steroid
  HSD17B13 Enzymatic Activity Relative Light Units: 196240 RLU
  HSD17B13 Enzymatic Activity Percent Estradiol Control: 0.62%

## CCCCC/C=C\C/C=C\C=C\[C@@H](O)CCCCCCC(=O)O [8(S)-HETrE]
[1]
  HSD17B13 Enzymatic Activity Relative Light Units: 412960 RLU
[2]
  HSD17B13 Enzymatic Activity Percent Estradiol Control: 9.38%
